Experimental data: US4328215A, “Method of reducing or avoiding the mutagenic activity of drugs” (The Johns Hopkins University, priority 1977, dated 1982)
Several values for one entry are separate records, joined by “and”; a condition that tells them apart may be missing. Equal values may be shown once.

Experiments:
Salmonella typhimurium = assay: Mutagenic activity of urines of treated germ-free and conventional rats (Ames); format: in vivo; conditions: for Revertants in excess of controls excreted in 24 hrs: 250 mg/kg oral
Description: Urine analysis (referred to above as the "Ames" test).
The schistosomicide 4-nitro-4'-[…] diphenylamine (CGP 4540) was orally administered to two germ-free rats and two conventional male Fisher rats weighing 220-240 grams. Urines from the thus treated animals were analyzed for mutagenic activity and assays were carried out as described in Journal of Pharmacology and Experimental Therapeutics, 200, 1-9 (1977) using the methodology of Ames et al (Mutat. Res., 31, 347-364). The mutagenic activities of the urines were determined in both the absence and presence of S9 (hepatic microsomal) fractions of phenobarbital pretreated rats (Ames et al, Proc. Nat. Acad. Sci, U.S.A., 71, 737-741, 1974) without and with preincubation with β-glucuronidase.
For test purposes, the isothiocyanate derivative was dissolved at 40° C. in a polyethoxylated vegetable oil (Emulphor El 620) to a final concentration of 50 mg/ml. Following sterilization by means of millipore filtration the mixture was administered by gastric intubation to two germ-free and two conventional male Fisher rats (weighing 220 to 240 gms) at a dose of 250 mg/kg of the isothiocyanate. One germ-free and one conventional rat that were given the filtered vehicle without the drug served as controls. The urines of each animal were collected for a period of 48 hours subsequent to administration of the drug or the filtered vehicle.
The germ-free rats used in the tests were kept in Tresder type plastic isolators. After administration of the isothiocyanate or the vehicle the germ-free rats were transferred into individual metabolism cages in the isolators.
The mutagenic activity determined for the test animals, expressed in terms of revertants in excess of the controls, is shown below: […]

Schistosoma mansoni [1] = assay: Antischistosomal activity in infected mice; format: in vivo
Description: Six groups of test mice, infected with Schistosoma mansoni, were treated as follows:
(1) a single dose of formulated CGP 4540 (10 mg/kg) with no antibiotic administered;
(2) single dose of formulated CGP 4540 as in (1) but preceded by 100 mg/kg of erythromycin (base);
(4) same as (1) but using a CGP 4540 dosage of 15 mg/kg;
(5) same as (4) but preceded by a 100 mg/kg dose of erythromycin; and
All drugs were administered by gastric intubation.

bile ducts and the liver = assay: Acute hepatotoxic effects; format: in vivo
Excerpt: A further advantage of the invention is that, at least in some instances, acute hepatotoxic effects resulting from use of an antischistosomal or other drug and caused by a metabolic product, may be prevented. […] Accordingly, in this particular situation the administration of the antibacterial agent not only prevents the mutagenic effects of a metabolic product of the intestinal bacterial flora but also the acute hepatotoxic effects which might otherwise be encountered.

[2] = Conversion of CGP 4540 to mutagenic metabolite by route; format: in vivo; conditions: oral vs injected intramuscularly or intravenously
[3] = Thin layer chromatography of urine extracts for mutagenic metabolite; format: in vivo, rats
Schistosoma mansoni [4] = assay: Antischistosomal activity in infected mice; format: in vivo; remark: listed apart in the source
[5] = CGP 4540 10 mg/kg single dose, no antibiotic, 196 mice, 10 mg/kg
[6] = CGP 4540 10 mg/kg, erythromycin (base) 100 mg/kg
[7] = CGP 4540 10 mg/kg, erythromycylamine 100 mg/kg
[8] = CGP 4540 15 mg/kg, erythromycylamine 100 mg/kg
[9] = CGP 4540 10 mg/kg, bacitracin 440 mg/kg
[10] = CGP 4540 10 mg/kg, succinylsulfathiazole 1 g/kg + bacitracin 220 mg/kg
[11] = CGP 4540 15 mg/kg, erythromycin (base) 100 mg/kg
[12] = CGP 4540 15 mg/kg, no antibiotic
[13] = CGP 4540 20 mg/kg, bacitracin 440 mg/kg

In the case of `O=[N+]([O-])c1ccc(Nc2ccc(N=C=S)cc2)cc1` [CGP 4540], the “Mutagenic activity after incubation of urines with β-glucuronidase” value (Salmonella typhimurium; 3 hrs at 37° C., conventional rats) is reported as “No further increase in mutagenic activity”, the “Revertants in excess of controls excreted in 24 hrs” value (shortened to “Revertants in excess”) (Salmonella typhimurium; conventional rats, urine 0-24 hrs, +S9, 250 mg/kg) is reported as 4,900 revertants excreted in 24 hrs and 5,000 revertants excreted in 24 hrs and the “Revertants in excess” value (Salmonella typhimurium; conventional rats, urine 0-24 hrs, -S9, 250 mg/kg) is reported as 3,800 revertants excreted in 24 hrs and 3,750 revertants excreted in 24 hrs. For the same compound, the “Revertants in excess” value (Salmonella typhimurium; conventional rats, urine 24-48 hrs, +S9, 250 mg/kg) was 2,800 revertants excreted in 24 hrs and 3,050 revertants excreted in 24 hrs, the “Revertants in excess” value (Salmonella typhimurium; conventional rats, urine 24-48 hrs, -S9, 250 mg/kg) was 1,600 revertants excreted in 24 hrs and 1,200 revertants excreted in 24 hrs and the “Revertants in excess” value (Salmonella typhimurium; germ-free rats, urine 0-24 hrs, +S9) was 0 revertants excreted in 24 hrs. For the same compound, the “Revertants in excess” value (Salmonella typhimurium; germ-free rats, urine 0-24 hrs, -S9) was 0 revertants excreted in 24 hrs, the “Revertants in excess” value (Salmonella typhimurium; germ-free rats, urine 24-48 hrs, +S9) was 0 revertants excreted in 24 hrs and the “Revertants in excess” value (Salmonella typhimurium; germ-free rats, urine 24-48 hrs, -S9) was 0 revertants excreted in 24 hrs. For the same compound, the “Urinary mutagenic metabolite in germ-free rats” value (Salmonella typhimurium; urines of germ-free rats (1) and (2)) was “no mutagenic metabolite was detectable”, the “Mice with parasitological cures” value (Schistosoma mansoni [1]; [5]) was 95% and the “Mice with parasitological cures” value (Schistosoma mansoni [1]; [6]) was 100%. The “Reduction in number of worms” value (Schistosoma mansoni [1]; [6]) was 100%, the “Reduction in number of worms” value (Schistosoma mansoni [1]; [7]) was 100% and the “Reduction in number of worms” value (Schistosoma mansoni [1]; [8]) was 100%. For the same compound, the “Schistosomicidal activity of single low doses with or without antibacterial agents” value (Schistosoma mansoni [1]; single low doses, with vs without antibacterial agents) was “nearly or equally as effective”, the “Lesions in bile ducts and liver” value (bile ducts and the liver; 500 mg/kg (50 times the curative dose)) was “some destructive lesions may be produced in the bile ducts and the liver” and the “Lesions in bile ducts and liver with antibacterial agent” value (bile ducts and the liver; 500 mg/kg, co-administration of erythromycin) was “these lesions are prevented”. For the same compound, the “Increase in conversion to mutagenic metabolite, oral vs intramuscular or intravenous” value [2] was 50%, the “Spot with Rf similar to isolated mutagenic metabolite in urine extract” value ([3]; conventional rats, 250 mg/kg oral, urine 0 to 24 hours) was “recognizable” and the “Spot with Rf similar to isolated mutagenic metabolite in urine extract” value ([3]; germ-free rats) was “No such spot appeared”. For the same compound, the “Mutagenic activity in the host mediated assay” value (S. typhimurium TA 100; in vivo, po) was “no mutagenic activity was detectable”, the “Mutant colonies found in the host-mediated assay” value (S. typhimurium TA 100; succinylsulfathiazole 1 g/kg once daily for 3 days before CGP 4540) was “very marked decrease” and the “Reduction in number of worms” value (Schistosoma mansoni [4]; CGP 4540 10 mg/kg single dose, no antibiotic, 196 mice) was 99%. The “Mice with parasitological cures” value (Schistosoma mansoni [4]; [5]) was 96%, the “Mice with parasitological cures” value (Schistosoma mansoni [4]; [9]) was 88% and the “Reduction in no. of worms” value (Schistosoma mansoni [4]; [9]) was 98%. The “Mice with parasitological cures” value (Schistosoma mansoni [4]; [7]) was 100%, the “Mice with parasitological cures” value (Schistosoma mansoni [4]; [10]) was 92% and the “Reduction in no. of worms” value (Schistosoma mansoni [4]; [10]) was 99%. For the same compound, the “Mice with parasitological cures” value (Schistosoma mansoni [4]; [11]) was 100%, the “Reduction in number of worms” value (Schistosoma mansoni [4]; [11]) was 100% and the “Mice with parasitological cures” value (Schistosoma mansoni [4]; [8]) was 100%. The “Mice with parasitological cures” value (Schistosoma mansoni [4]; [12]) was 100%, the “Reduction in number of worms” value (Schistosoma mansoni [4]; [12]) was 100% and the “Mice with parasitological cures” value (Schistosoma mansoni [4]; [13]) was 100%. For the same compound, the “Reduction in no. of worms” value (Schistosoma mansoni [4]; [13]) was 100% and the “Mice with parasitological cures” value (Schistosoma mansoni [4]; CGP 4540 20 mg/kg, no antibacterial) was 100%.
